Test results reported in patent publication US20140099354A1, “BIOPASSIVATING MEMBRANE STABILIZATION BY MEANS OF NITROCARBOXYLIC ACID-CONTAINING PHOSPHOLIPIDS IN PREPARATIONS AND COATINGS” (priority 2011, published 2014).

Tests used:
[1] = Abrasion stability and traction work load of coated balloon catheters; type: physicochemical
Description: Balloon catheters were coated by means of the Langmuir-Schaefer procedure where the balloon segment was aligned longitudinally and coaxial to the solution surface, dipping into the liquid for approx. 1 mm over the entire length. Then the catheter was slowly rotated around its axis 5 times. Phospholipids were dissolved at a concentration of 3 mmol in an ion-free aqueous solution at 50° C. The solution was cooled and given to the coating solution then. In case of incomplete dissolution of the phospholipids or if they separated when cooled, DMSO was added at a concentration of up to 20 vol.-%, preferably up to 10 vol.-%. After coating, the catheters were vacuum dried for 8 hours in order to remove residual solvent.
The tubing was filled with a 10% human albumin solution at a temperature of 35° C. The cable system, which had previously been brought through the tubing was connected to the catheter tip and tracked outside the tubing by reversing pulleys, which allowed exactly vertically traction of the cable that was connected to a motorized winch. The winch was mounted on a digital precision balance. The catheters mounted in this manner were pulled through the tubing system and the weight changes measured by the balance, which represented the traction work load achieved for the passage of the catheter, was recorded continuously. These readings were integrated over time. The resultant values allow estimation of the total shear force that occurred during the passage of the catheter through the tubing system.
The abrasion or loss of coating layers was determined by weighing the catheter before and after coating as well as after the mechanical stability test in the tubing system as described above using a high precision balance.

[2] = test system: Human red blood cells; test: Erythrocyte membrane stability (osmotic, mechanical, storage); type: cell-based; settings: 30 mmol/l, incubated for an hour
Description: The physico-chemical properties of cell membranes determine their strength of resistance to physical, chemical and immunological alterations. Human red blood cells and mast cells from mice dissolved in solutions of physiological NaCl containing the natural phospholipids SOPC and PLPC or the analogue nitrated phospholipids (1-stearoyl-2-(9-nitrooleoyl)-sn-PC (example P14) and 1-palmitoyl-2-(9-nitrolinoleoyl)-sn-PC) (example P7) at a concentration of 30 mmol/l were incubated for an hour in order to assess the effects of an up-take of phospholipids into the cell membranes with respect to resistance to external alterations. Similarly, cells incubated with mixtures of nitro-carboxylic acid (s)-containing phospholipids according to examples N2-N14, F, Q, S, O3-O6, P1-P3 and P6 were investigated.
For assessment of osmotic stability, cells were separated from serum by centrifugation first and then cleaned three times with physiological NaCl solution. […] After incubation for 30 minutes under the above described conditions, the tubes were centrifuged and an aliquot was taken for photometric measurement of hemoglobin by absorbance at a wavelength of 546 nm at a temperature of 30° C.
For the examinations of mechanical stability, erythrocytes were prepared according to the procedure above. […] Then, the samples were centrifuged and supernatants were analyzed as stated above. […]

[3] = test system: TRPV1, 2 and 4, TRPA1; test: Inducible ion current of TRP receptors in Xenopus oocytes (voltage clamp); type: cell-based, rat; settings: 50 mmol/l, 10 and 60 minutes
Description: An established in-vitro model of Xenopus oocytes (Dascal N, 1987 The use of Xenopus oocytes. CRC critical reviews in biochemistry 22, 317-387) was used to study the influence of incubation with PL on ion channels regulated by membrane receptors. Defolliculized oocytes were transfected with cRNA (rat) of TRPV1, 2 and 4, as well as of TRPA1, stored in tissue culture plates and incubated in culture medium (ND 96) at 15° C. under constant motion in the incubator for 7 to 10 days.
Induced leakage currents through activation of the TRP receptors was determined by means of double electrode voltage-clamp technique (Ahern G P, Brooks I M, Miyares R L &Wang X B, 2005, Extracellular cations sensitize and gate capsaicin receptor TRPV1 modulating pain signalling. J Neurosci 25, 5109-5116). Ooocytes were probed with borosilicate glass capillaries (Clark) and connected to a feedback amplifier (Gene clamp Amplifier, Axon instruments). The membrane potential of oocytes was clamped to −60 or −90 mV. The presence of a directive […] current was compared to non-transfected controls. The investigations were performed in a miniature organ bath in calcium-free buffered (Hepes, pH 7.3) NaCl solution. The TRPV1 receptor excitation was initiated by rapidly changing of the bath solution against a capsaicin solution (10 μmol). Results of non-pretreated oocytes were used for normative comparison of subsequent measurements of incubatesd cells. Investigations with incubated cells were carried out in the same way for oocytes transfected with the TRPV2, and TRPV4 and TRPA1 receptors, wherein the receptor agonists cannabidiol (10 μmol) and 4α-PDD (4α-phorbol 12,13-didecanoate, 50 μmol) and innamaldehyde (50 μmol) were used instead of capsaicin.

[4] = Tissue response to coated silicone implants in vivo after bleomycin; parameters: species or system Wistar rats; settings: silicone cushions, subcutaneous, 7 to 90 days
Description: Induction of fibrotic tissue production by connective tissue activation as a consequence of implantation of foreign material was examined in an in-vivo animal model. As implant materials, sterile silicone cushions having a diameter of 1 cm were used.
In male Wistar rats (190-240 g) that were fed and housed under identical conditions for one week, general anaesthesia was performed by intramuscular injection of 0.008 mL/100 g ketamine and 0.004 mL/100 g xylocaln chloride 2%. Then the back of the animals was shaved, sterilized and infiltrated with xylocalne chloride. A paravertebral incision was made on both sides with a length of 1.5 cm followed by preparation of the subcutaneous tissue, so that on both sides approx. 2×2 cm cavities were preformed. Hemostasis was achieved by cauterization, if necessary. Then balls of cotton saturated with Bleomycin (cell-pharm GmbH, Hannover, Germany: 1% in 0.9% NaCl solution) were inserted into the cavities for 3 minutes and then removed. Without rinsing the cavities, the implants coated with a nitrated phospholipid were inserted into the cavity on the left side and the implants coated with natural phospholipid into the cavity on the right side. Thereafter, a layer by layer wound closure was performed and a sterile adhesive bandage was applied.
The animals were kept according to standard conditions for 7, 14, 30, 60 and 90 days. At any study time endpoint, two animals were euthanized. After death the well visible and palpable implants were removed using en-block resection technique. The resected specimens were fixed and embedded in paraffin. Then they were cut in half and the liquid silicone was removed. The specimens were embedded again and cut into thin slices which were stained with H & E and Sirius red, and evaluated by light microscopy. Evaluation was done according to the following criteria:
A1: none; A2: occasional monocytic cells or lymphocytes; A3: moderate numbers or groups of monocytic cells or lymphocytes; A4: dense infiltration of monocytes, eosinophils, or giant cells.
B1: none; B2: collagen-rich layer around the implant; B3: thick (>1 mm) and dense collagen-rich tissue formation around the implant.
In every 10th serial section 10 fields of view uniformly distributed over the circumference of the implant were evaluated and the herein predominant expression was assigned to an event table. In total, 200 fields of view were analyzed per implant

[5] = test system: sciatic nerve; test: Viability of cryopreserved nerve grafts (Annexin-V staining, FACS); type: cell-based, rats; settings: 100 mmolar solution 1 hour; −30° C. 72 hours
Description: The sciatic nerve was prepared and sectured in anesthetized rats. The nerve pieces were freed from connective tissue and divided into 3 parts. Specimens were placed in culture DMEM medium containing low a concentration of glucose (1 g/L) with L-glutamine (PAA, Pasching Austria) for 24 hours. […] Nerve specimens from the same animals that received no pretreatment served as controls. After incubation, the specimens were cultured for 24 hours. In a further control group, specimens were cryopreserved without any pretreatment. The specimens were covered with a sterile gauze pad moistened with culture medium. Thereafter the temperature was gradually cooled to −30° C. After 72 hours, the nerve pieces were gradually rewarmed to 37° C. After this, renewed culturing was done for 48 hours. The nerve pieces were dissected enzymatically then (collagenase A and D, Roche, Mannheim, Germany) followed by a mechanical separation through multiple uptake and release in a glass pipette. The isolated cells were washed and marked with a living/death staining (Annexin-V-Fluos staining Kit, Roche Diagnostics, Mannheim, Germany) and quantified using FACS analysis. The number of living cells identified was set in relation to the total cells count.

[6] = test system: Cardiac muscle cells derived from neonatal rat heart; test: Hypoxia of cardiac muscle cells (viability, mitochondrial NAD+); type: cell-based; settings: for mitochondrial NAD+ content: hypoxia, baseline 5
Description: Cardiac muscle cells derived from neonatal rat heart (Nitobe J, et al, Reactive oxygene species regulate FLICE inhibitory protein and susceptibility to FAS-mediated apoptosis in cardiac myocytes. Cardiovasc RES 2003, 119-28). The heart muscle cells were cultured in Dulbecco/Eagle medium (DMEM) with 10% FCS added under standard conditions for two days. Incubation with the natural and nitrated phospholipids, as well as the hypoxia experiments were carried out as described above. Incubated cells were grown in culture medium under standard conditions for 24 hours. This is followed by a vitality staining as described above. […] The frozen cells were thawed up to -4° C. and homogenized for subsequent NAD^+ analyses. By means of differential centrifuge, pellets containing mitochondria were separated (Di Lisa, et al, 1993; Am. J. Physiol. 264, […]-[…]). The NAD^+ content was determined by fluoroscopy, and normalized to the protein content (Veloso, D., and […]., 1974;) Anal. Biochem., 449-450).

[7] = test system: Heart muscle cells from rabbit hearts; test: Cytosolic Ca2+ concentration in heart muscle cells (fluo-4 fluorescence); type: cell-based
Description: Heart muscle cells were taken from rabbit hearts according to a method described elsewhere (Shannon T R, Ginsburg K S, Bers D M. Quantitative assessment of the SRCa^2+ leak-load relationship. Circ Res. 2002; 91:594-600). The prepared cells were cultured for 72 hours.
The cytosolic Ca^2+ concentrations were determined with fluo-4 fluorescence. Therefore the cells were incubated with 10 μmol fluo-4 AM (1%) for 30 minutes and washed thereafter three times with PBS. The cells were stimulated in a Tryode solution on a platinum electrode with a frequency of 0.5 Hz over 20 cycles. Then the ambient medium was changed and an electrolyte-free colloidal solution was added. Determination of the Ca concentration was performed after each series of stimulation over 20 cycles. Calcium content was estimated by the use of confocal laser scanning microscopy (Olympus). At least 10 cells per experiment were evaluated in a post-systolic interval of 1000 ms. The measurements were repeated at least three times. β-adrenergic stimulation was performed with 250 nmol/L isoproterenol, which was given to the medium.

[8] = test system: ovarian tissue strips; test: Cryopreservation of ovarian tissue strips: 17 β-estradiol and progesterone (radio-immuno assay); type: cell-based, sheep; settings: after cryopreservation and culture
Description: (§1) Ovar ectomy was performed in female sheep; resected tissues were cut into 60 ovarian tissue strips. The ovarian strips were either cultured directly (n=4) or prepared with a usual solution for vitrification (VS group; Vitrification Kit, Sage, USA) or incubated with nitrated PLs (NPL group). For this purpose, the tissue strips were bathed in an equibrilation solution (ART-8025-A) which consisted of MOPS-buffered amino acids and gentamicin sulfate (10 mg/l), and 7.5% (v/v) of each DMSO and ethylene glycol and 12 mg/ml human serum albumin for 30 minutes. Thereafter the strips of the VS group were placed in the vitrification solution (ART-8025-B), which is a MOPS-buffered solution containing amino acids and gentamicin sulfate, that contain 15% (v/v) each DMSO and ethylenglycol, 12 mg/ml human albumin and 0.6 M sucrose. The strips of the NPL group were placed in a solution containing 25% (v/v) nitrated PL SNOPC or PNLPC in a PBS-buffered 1% DMSO solution containing 5% human albumin for 60 minutes. The treated tissue strips were then immersed into liquid nitrogen and kept here for 14 days. Then removal and warming of the tissue pieces was performed in AIM-V medium (Gibco, Invitrogen) in a sterile culture dish, first up to 5° C. within 20 minutes, then heated further in a water bath up to 37° C., within the following 60 minutes. The culture medium was replaced and specimens cultured for 14 days. After this, the tissue pieces were fixed, embedded in paraffin and cut, followed by histological examination. […] The total number of intact follicles in the control group was taken as a reference to the number of follicles in the cryopreserved groups.
(§2) The culture medium has been exchanged by every 2nd day; samples for hormone analysis were taken and frozen at that time. Determination of 17 β-estradiol and progesterone were performed with a radio-immuno assay (diagnostic systems laboratories, USA).

[9] = target: Glycophorin A (GpA) peptides (Homo sapiens, UniProt P02724); settings: 10-50% (mol/mol) admixed to DSPC vesicles; versus native phospholipids
Description: The change of the Frster resonance energy transfer (FRET) of fluorescence-labelled peptides with α helical trans-membrane structure in a double lipid layer can be used for determination of the concentration of monomeric and dimeric trans-membrane helices and for quantitative determination of helix-helix interactions.
FRET measurements were carried out with fluorescence-marked Glycophorin A (GpA) peptides. The transmembrane GpA forms dimers, whereby the energy transfer can be measured. 5-carboxyfluorescein and tetramethyl-6-carboxyrhodamine were used as chromophores.
Degree of dimerization of the model protein was measured in a direct comparison between native phospholipids and the corresponding phospholipids with a nitrated alkyl chain for the given concentrations of phospholipids (10-50%, mol/mol) admixed to the DSPC vesicles.
For determination of the dimerization, the peptides of FL GpAwt and TAMRA GpAwt were weighed and dissolved in TFE. The measurements were carried out on a fluorescence spectrometer of type Aminco Bowman series 2 (Thermo Spectronic).

[10] = test system: ovarian tissue strips; test: Cryopreservation of ovarian tissue strips: intact follicles; settings: liquid nitrogen 14 days, cultured 14 days
Description: as §1, §2

[11] = test system: cortical neurons; test: Hypoxia and reperfusion of cortical neurons (viability, LDH)
Description: To determine whether the membrane-stabilizing properties of nitrated phospholipids can lead to attenuation of effects due to an ischemic event or the re-perfusion damage, cortical neurons and cardiac myocytes were investigated.
Freshly prepared cortex tissue was separated with Papain and tissue suspensions were cultured in culture vessels (Prim ARA; BD Biosciences, USA) with Neurobasal A/B27 medium (Invitrogen) for 10-12 days. Cell suspensions were divided, and replenished with suspensions of the natural phospholipids SOPC and PLPC, as well as the analogue phospholipids with nitration of unsaturated fatty acids (1-stearoyl-2-(9-nitrooleoyl)-sn-PC and 1-palmitoyl-2-(9-nitrolinoleoyl)-sn-PC) at concentrations of 10 to 50 μmol/l in NaCl (0.9%) were added. […] After 4 hours, the cells were washed three times with buffered saline and buffered NaCl solution with the addition of MgCl2 and CaCl2 in an anaerobic atmosphere (85% N2, 5% O2, 10% CO2; at 35° C.) for 10 and 30 minutes. Then, the cells were washed once and grown in culture medium under aerobic conditions for 24 hours. […] Cells were stained with annexin V-FITC and propidium iodide (Molecular probes, USA). The vital and necrotic cells were measured by flow cytometry (FACSCalibur, Becton & Dickinson). The volume of culture medium was determined and an aliquot was taken for determination of the LDH (lactate dehydrogenase) concentration.

[12] = test system: Murine macrophages (RAW 264.7)
Description: The survival rate and cytokine production of adhering macrophages were examined to evaluate the bio-passivating properties of various nitro-carboxylic acid containing phospholipids.
Templates made of glass were coated with nitro-carboxylic acid-containing and native phosphatidylcholines and with an admixture of 50% phosphatidylcholine and phosphatidyletholamine, as described in example 2. […] The glass slides were placed in Teflon bowl, uncoated slides served as control. Murine macrophages (RAW 264.7) were cultured to a cell density of 5×10^5. Cell suspensions were added to the culture dishes, so that macrophages could attach on the slides under standard culture conditions for 24 to 48 hours. […] The cell survival rate was investigated using an MTT assay.

Sequence of Glycophorin A (GpA) peptides (P02724 92-114 limits assumed, species assumed): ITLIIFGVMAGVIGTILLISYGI

CCCCCCCCC=C(CCCCCCCC(=O)OC[C@H](COP(=O)(O)OC1C(O)C(O)C(O)C(O)C1O)OC(=O)CCCCCCCC(=CCCCCCCCC)[N+](=O)[O-])[N+](=O)[O-] (stereo partly drawn) [Example F, 1,2-di-(9-nitrooleoyl)-sn-3-glycerophosphatidylinositol]
mechanical removal of coating substance and workload to pull the catheter through PTFE tubing [1]: Very similar results | erythrocyte membrane stability [2]: very similar values as the nitrated phosphocholines | inducible membrane channel activity of TRP channels [3]: significant decrease of inducible membrane channel activity | biocompatibility of coated implants compared to natural PLs [4]: improved biocompatibility of implants several-fold | proportion of living cells relative to non-frozen control [5]: 88%

CCCCCCCC/C=C(\CCCCCCCC(=O)O[C@H](COC(=O)CCCCCCCCCCCCCCC)COP(=O)(O)OCCN)[N+](=O)[O-] [Example S, 1-Palmitoyl-2-(E-9-nitrooleoyl)-sn-3-glycero-phosphatidylethanolamine]
mechanical removal of coating substance and workload to pull the catheter through PTFE tubing [1]: Very similar results | erythrocyte membrane stability [2]: very similar values as the nitrated phosphocholines | inducible membrane channel activity of TRP channels [3]: significant decrease of inducible membrane channel activity | proportion of living cells relative to non-frozen control [5]: 85%

CCCCCCCC/C=C(\CCCCCCCC(=O)O[C@H](COC(=O)CCCCCCCCCCCCCCCCC)COP(=O)([O-])OCC[N+](C)(C)C)[N+](=O)[O-] [Example P14, 1-stearoyl-2-(E-9-nitrooleoyl)-sn-3-glycerophosphocholine]
loss of viability of heart muscle cells after hypoxia ([6]; (10 minutes)): 6% | loss of viability of heart muscle cells after hypoxia ([6]; (30 minutes)): 16% | mitochondrial NAD+ content ([6]; first printed value): 3.8 nmol/mg protein | mitochondrial NAD+ content ([6]; second printed value): 3.3 nmol/mg protein | end of diastole (ED) cytosolic calcium ([7]; after hypoxia): 80 nmol/L | post systolic (PS) cytosolic calcium ([7]; after hypoxia): 40 nmol | end of diastole (ED) cytosolic calcium ([7]; after hypoxia and stimulation with isoproterenol): 90 nmol/L | end of diastole (ED) cytosolic calcium ([7]; normoxic conditions): 30 nmol/L | post systolic (PS) cytosolic calcium ([7]; normoxic conditions): 10 nmol | inducible membrane channel activity of TRP channels [3]: significant decrease of inducible membrane channel activity | biocompatibility of coated implants compared to natural PLs [4]: improved biocompatibility of implants several-fold | estradiol [8]: 8.6 ng/mL | progesterone [8]: 0.6 ng/mL | proportion of living cells relative to non-frozen control [5]: 86% | degree of dimerization of the model membrane protein [9]: significantly greater reduction of dimerization | rate of intact follicles relative to the control group [10]: 96% | increase in LDH versus normoxemia culture ([11]; 10-minutes ischemia): 120 fold | viability of cortical cells measured after 24 hours ([11]; 10-minutes ischemia): 68% | increase in LDH versus normoxemia culture ([11]; 30-minutes ischemia): 230 fold | viability of cortical cells measured after 24 hours ([11]; 30-minutes ischemia): 54%

CCCCCCCC/C=C(\CCCCCCCC(=O)OC[C@H](COP(=O)([O-])OCC[N+](C)(C)C)OC(=O)CCCCCCCCCCCCCCC)[N+](=O)[O-] [Example Q, 1-(9-Nitrooleoyl)-2-(palmitoyl)-sn-3-glycero-phosphocholine]
mechanical removal of coating substance and workload to pull the catheter through PTFE tubing [1]: Very similar results | proportion of living cells relative to non-frozen control [5]: 80% | viability of adhering macrophages [12]: 95-98% | rate of intact follicles relative to the control group [10]: 96%
